Target: T1, p38α/SAPK2α (Homo sapiens, UniProt Q16539)
T1 construct: purchased Upstate Biotechnology 14-251
Assay: p38α in vitro kinase assay
Format: biochemical
Details: 5 nM p38α, 62.5 uM EGFR substrate, 100 uM ATP, 30° C., 40 min
Method: p38α in vitro Kinase Assay
Active p38α/SAPK2α was purchased from Upstate Biotechnology (cat#14-251). A known p38α substrate from EGFR was used in the assay (Young, et al. (1997) JBC 272: 12116-12121).
Reactions were performed in 1× kinase buffer (25 mM Tris-HCl pH 7.5, 5 mM β-glycerophosphate, 2 mM DTT, 0.1 mM Na3VO4, 10 mM MgCl2, 1 uM Microcystin) with 5 nM p38α, 62.5 uM substrate, 40 uM to 0.2 nM compound dilution series in 1×KB/16% DMSO (final 4% DMSO concentration). Reactions were started by addition of 100 uM ATP (final concentration) with 1 uCi ^33P-γ-ATP in 1×KB and incubated at 30° C. for 40 min. Reactions were stopped with H3PO4 and quantitated on Millipore PH phosphocellulose filter plates by liquid scintillation counting on a MicroBeta JET.

T1 sequence (Q16539 whole entry): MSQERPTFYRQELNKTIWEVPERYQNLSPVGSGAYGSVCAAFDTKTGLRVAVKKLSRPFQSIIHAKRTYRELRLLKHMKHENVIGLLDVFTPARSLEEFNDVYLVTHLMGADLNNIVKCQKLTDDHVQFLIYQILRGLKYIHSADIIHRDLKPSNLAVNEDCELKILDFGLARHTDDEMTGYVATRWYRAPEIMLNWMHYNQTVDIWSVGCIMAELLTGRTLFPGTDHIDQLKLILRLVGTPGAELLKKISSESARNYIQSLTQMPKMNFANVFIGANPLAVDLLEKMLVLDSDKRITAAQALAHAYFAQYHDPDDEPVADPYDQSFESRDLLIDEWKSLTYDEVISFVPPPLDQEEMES

IC50 [µM] | SMILES
< 20 | O=C(NCCc1c[nH]cn1)c1ccc2c(-c3c(-c4ccccn4)nn4c3CCC4)ccnc2c1 [4-(2-Pyridin-2-yl-5,6-dihydro-4H-pyrrolo[1,2-b]pyrazol-3-yl)-quinoline-7-carboxylic acid [2-(1H-imidazol-4-yl)-ethyl]-amide]
< 20 | Cc1cccc(-c2nn3c(c2-c2ccnc4ccc(-c5ccc(F)cc5)cc24)CCC3)n1 [6-(4-Fluoro-phenyl)-4-[2-(6-methyl-pyridin-2-yl)-5,6-dihydro-4H-pyrrolo[1,2-b]pyrazol-3-yl]-quinoline]
< 20 | c1ccc(-c2nn3c(c2-c2ccc4ccccc4c2)CCC3)nc1 [3-Naphthalen-2-yl-2-pyridin-2-yl-5,6-dihydro-4H-pyrrolo[1,2-b]pyrazole]
< 20 | Cc1cccc(-c2nn3c(c2-c2ccc4c(c2)OCO4)CCC3)n1 [3-Benzo[1,3]dioxol-5-yl-2-(6-methyl-pyridin-2-yl)-5,6-dihydro-4H-pyrrolo[1,2-b]pyrazole]
< 20 | CN1CCN(CCCOc2ccc3c(-c4c(-c5ccccn5)nn5c4CCC5)ccnc3c2)CC1 [7-[3-(4-Methyl-piperazin-1-yl)-propoxy]-4-(2-pyridin-2-yl-5,6-dihydro-4H-pyrrolo[1,2-b]pyrazol-3-yl)-quinoline]
< 20 | CN(C)CC(=O)Nc1ccc2c(-c3c(-c4ccccn4)nn4c3CCC4)ccnc2c1 [2-Dimethylamino-N-[4-(2-pyridin-2-yl-5,6-dihydro-4H-pyrrolo[1,2-b]pyrazol-3-yl)-quinolin-7-yl]-acetamide]
< 20 | Fc1ccc(-c2nn3c(c2-c2ccnc4ccccc24)CCC3)cc1 [4-[2-(4-Fluoro-phenyl)-5,6-dihydro-4H-pyrrolo[1,2-b]pyrazol-3-yl]-quinoline]
< 20 | COc1ccc2c(-c3c(-c4ccccn4)nn4c3CCC4)ccnc2c1 [7-Methoxy-4-(2-pyridin-2-yl-5,6-dihydro-4H-pyrrolo[1,2-b]pyrazol-3-yl)-quinoline]
< 20 | Cc1cccc(-c2nn3c(c2-c2ccnc4ccc(C(=O)O)cc24)CCC3)n1 [4-[2-(6-Methyl-pyridin-2-yl)-5,6-dihydro-4H-pyrrolo[1,2-b]pyrazol-3-yl]-quinoline-6-carboxylic acid]
< 20 | Cc1cccc(-c2nn3c(c2-c2ccnc4cc(N)ccc24)CCC3)n1 [7-Amino-4-[2-(6-Methyl-pyridin-2-yl)-5,6-dihydro-4H-pyrrolo[1,2-b]pyrazol-3-yl]-quinoline]
< 20 | CSc1ccc2nccc(-c3c(-c4ccccn4)nn4c3CCC4)c2c1 [6-Methylsulfanyl-4-(2-pyridin-2-yl-5,6-dihydro-4H-pyrrolo[1,2-b]pyrazol-3-yl)-quinoline]
< 20 | Cc1cccc(-c2nn3c(c2-c2ccc(F)cc2)CC[C@@H]3CC#N)n1 [(R)-[3-(4-Fluoro-phenyl)-2-(6-methyl-pyridin-2-yl)-5,6-dihydro-4H-pyrrolo[1,2-b]pyrazol-6-yl]-acetonitrile]
< 20 | c1ccc(-c2nn3c(c2-c2ccnc4cc(OCCCn5ccnc5)ccc24)CCC3)nc1 [7-(3-Imidazol-1-yl-propoxy)-4-(2-pyridin-2-yl-5,6-dihydro-4H-pyrrolo[1,2-b]pyrazol-3-yl)-quinoline]
